Reference: patent US5679638A, “Method for treating a tumor with a chemotherapeutic agent” (Biopure Corporation, priority 1993, dated 1997)

Assays:
[1] = system: Lewis lung carcinoma; assay: Lewis lung carcinoma growth delay; assay type: in vivo, mouse (male C57BL); conditions: for Lewis lung carcinoma growth delay, Mean Days: NSAID days 4-18; for Increase of growth delay by addition of UPHS: drug + UPHS vs drug
Experimental: The Lewis lung tumor was carried in male C57BL mice (Taconic Laboratories, Germantown, N.Y.). For the experiments, 2×10^6 tumor cells prepared from a brei of several stock tumors were implanted subctaneously into the legs of male mice aged 8-10 weeks. […] Animals bearing Lewis lung tumors were treated daily with intraperitoneal Mino (10 mg/kg), Diflun (15 mg/kg) or Sulin (15 mg/kg) on days 4-18 following tumor implantation. When the tumors had reached a volume of approximately 100 mm^3 (day 7 after tumor cell implantation), cytotoxic therapy was initiated.
Therapy consisted of treatment with an antitumor alkylating agent, an antitumor antimetabolite, a non-steroidal anti-inflammatory drug (NSAID) and/or UPHS. […] CTX therapy consisted of three successive 150 mg/kg CTX doses administered by intraperitoneal injections on days 7, 9 and 11. BCNU therapy consisted of three successive 15 mg/Kg BCNU doses administered by intraperitoneal injections on days 7, 9 and 11. Therapy with the antimetabolite 5-fluorouracil(5-FU) consisted of 4 successive 40 mg/kg 5-FU doses administered by intraperitoneal injections daily on days 7 to 11. The 5-FU was purchased from Sigma Chemical Co., St. Louis, Mo. Fourteen doses of 10 mg/kg of NSAID were administered daily by intraperitoneal injections on days 4 to 18. UPHS was injected into the tail vein in 8 ml/kg doses daily on days 7-11.
The progress of each tumor was measured thrice weekly until it had reached a volume of 500 mm^3. Tumor growth delay was calculated as the number of days required for each treated tumor to reach a volume of 500 mm^3 as compared with untreated control tumors. Each treatment group comprised six animals and the experiment was repeated three times.
On the twentieth day after the subcutaneous tumor implantation, the delay in Lewis Lung Carcinoma tumor growth was evaluated. Tumor growth delay data is presented as the mean value ±SE calculated for the treatment group as compared with the control group.

[2] = system: intracranial 9L gliosarcoma; assay: Life span of rats with intracranial 9L gliosarcoma; assay type: in vivo, rat (male Fischer 344); conditions: for % Increased from Control (life span) / Survival Days: Table II; for % Increased from Control (life span) / Increase in life span with UPHS prior to the drug therapy: vs untreated control; for Survival Days: control 26 ± 2.2 days, CDDP 8 mg/kg day 7, BCNU 3 x 15, CTX or IFOS 3 x 100 mg/kg days 7, 9, 11, UPHS 8 ml/kg; for Significance of increase in life span, drug alone: 25% or more is therapeutically significant; for Effectiveness against intracranial 9L tumors: relative statement among BCNU, CTX, CDDP, IFOS
Experimental: (§1) The 9L gliosarcoma (9L) cells were obtained as a gift of 9L/SF gliosarcoma cells from Dr. Dennis Dean, University of California, San Francisco. These cells were maintained in culture in .varies.-MEM (Grand Island Biological Co., Grand Island, N.Y.) and supplemented with 10% fetal bovine serum (Sterile Systems, Inc., Logan, Utah) and with antibiotics. The 9L cells (4×10^4) in 10 μL of media without serum were implanted intracranially in male Fischer 344 rats (Taconic Farms, Germantown, N.Y.) weighing 200-250 gm on day 0. Each rat was anesthetized with sodium pentobarbital. A midline scalp incision was made and a hole was bored through the skull with 23 gauge needle at a point 2 mm lateral to the midline. The cell suspension was injected into the right frontal lobe at a depth of 3 mm from the dural surface. The needle was removed and the hole filled with dental cement. The scalp was sealed with a surgical clip. Two days later 9L cells (2×10^6) were implanted subcutaneously into the flank of each animal. When the tumors were approximately 100 mm^3 in volume, 7 days after tumor cell implantation, 8 ml/kg of UPHS was injected via the tail vein. After injecting the UPHS, administration of chemotherapeutic agents was initiated. […] BCNU therapy consisted of three 15 mg/kg BCNU doses administered by intraperitoneal injection days 7, 9 and 11. CTX and ifosfamide (IFOS) therapy consisted of three 100 mg/kg CTX or IFOS doses administered by intraperitoneal injection on days 7, 9 and 11. For the BCNU, CTX and IFOS therapies, UPHS was intravenously administered prior to each chemotherapeutic agent injection on days 7, 9 and 11. The IFOS was purchased from the Dana-Farber Cancer Institute. Survival of animals was monitored daily. Animals that were moribund or unable to reach food or water were killed by CO2 inhalation.
The effect of the treatments on the growth of the intracranial tumor was determined by the increase in life span of treated groups compared with the untreated controls. A percentage increase in life span of 25% or more is therapeutically significant.

[3] = system: subcutaneous 9L gliosarcoma; assay: Subcutaneous 9L gliosarcoma tumor growth delay; assay type: in vivo, rat (male Fischer 344); conditions: for Subcutaneous 9L Tumor Growth Delay, Mean Days: Table III, days to 500 mm^3 vs control (19.5 ± 0.5 days), CDDP 8 mg/kg day 7, BCNU 3 x 15, CTX or IFOS 3 x 100 mg/kg, UPHS 8 ml/kg; for Increase in tumor growth delay by prior administration of UPHS: UPHS + drug vs drug alone; for Effectiveness against subcutaneous 9L tumors: relative statement among BCNU, CTX, CDDP, IFOS
Experimental: as §1
The progress of each subcutaneous tumor was measured 3 times/week until it reached a volume of 500 mm^3. Tumor growth delay was calculated as the number of days for each individual tumor to reach 500 mm^3 compared with untreated controls. Each treatment group had 4 animals and the experiment was repeated twice. Days of tumor growth delay are the mean ±SE for the treatment group compared with the control.

[4] = WITH UPHS (8 ml/kg daily days 7-11), CDDP or PAM 10 mg/kg, CTX 3 x 150, BCNU 3 x 15, 5-FU 40 mg/kg
[5] = WITHOUT UPHS, CDDP or PAM 10 mg/kg day 7, CTX 3 x 150, BCNU 3 x 15 mg/kg days 7, 9, 11, 5-FU 40 mg/kg
[6] = intracranial (life span) and subcutaneous (growth delay) 9L tumors

Compound: O=NN(CCCl)C(=O)NCCCl [BCNU, N,N-bis(2-chloroethyl)-N-nitrosourea]
- Lewis lung carcinoma growth delay, Mean Days [1, 4]: 5.3 ± 0.5 days
- Lewis lung carcinoma growth delay, Mean Days [1, 5]: 3.6 ± 0.4 days
- Increase of growth delay by addition of UPHS [1]: also enhanced, to a lesser degree
- % Increased from Control (life span) [2]: 22%
- Survival Days [2]: 31.6 days
- Increase in life span with UPHS prior to the drug therapy [2]: 38%
- Significance of increase in life span, drug alone [2]: did not reach significance
- Increase in therapeutic response upon addition of UPHS ([2]; rat, in vivo, sc): improved to a greater degree, as determined by increase in life span, against the intracranial tumor than against the subcutaneous tumor
- Effectiveness against intracranial 9L tumors [2]: moderately effective against the intracranial 9L tumors
- Subcutaneous 9L Tumor Growth Delay, Mean Days [3]: 5.8 ± 0.5 days
- Increase in tumor growth delay by prior administration of UPHS [3]: 1.3 fold
- Effectiveness against subcutaneous 9L tumors [3]: least effective against subcutaneously growing 9L tumors

Compound: N.N.[Cl][Pt][Cl] [CDDP, cis-diaminodichloroplatinum(II)]
- Lewis lung carcinoma growth delay, Mean Days [1, 4]: 5.7 ± 0.4 days
- Lewis lung carcinoma growth delay, Mean Days [1, 5]: 4.5 ± 0.3 days
- Increase of growth delay by addition of UPHS [1]: also enhanced, to a lesser degree
- % Increased from Control (life span) [2]: 29%
- Survival Days [2]: 33.6 days
- Increase in life span with UPHS prior to the drug therapy [2]: 46%
- Significance of increase in life span, drug alone [2]: significant increase in life span
- Increase in therapeutic response upon addition of UPHS [2, 6]: improved to a greater degree, as determined by increase in life span, against the intracranial tumor than against the subcutaneous tumor
- Effectiveness against intracranial 9L tumors [2]: very effective against both subcutaneous and intracranial 9L tumors
- Subcutaneous 9L Tumor Growth Delay, Mean Days [3]: 9.4 ± 0.8 days
- Effect of UPHS on tumor growth delay produced by drug ([3]; UPHS prior to single dose of CDDP): no substantial effect on the tumor growth delay
- Effectiveness against subcutaneous 9L tumors [3]: very effective against both subcutaneous and intracranial 9L tumors

Compound: O=P1(N(CCCl)CCCl)NCCCO1 (stereo not shown) [CTX, Cyclophosphamide]
- Lewis lung carcinoma growth delay, Mean Days [1, 4]: 43.1 ± 2.9 days
- Lewis lung carcinoma growth delay, Mean Days [1, 5]: 21.5 ± 1.7 days
- Increase of growth delay by addition of UPHS [1]: more than two-fold
- Tumor growth delay relative to other drugs ([1]; vs CDDP, PAM, BCNU or 5-FU): substantially longer than that resulting from CDDP, PAM, BCNU or 5-FU
- % Increased from Control (life span) [2]: 20%
- Survival Days [2]: 31.3 days
- Increase in life span with UPHS prior to the drug therapy [2]: 43%
- Significance of increase in life span, drug alone [2]: did not reach significance
- Increase in therapeutic response upon addition of UPHS [2, 6]: greatest increases in therapeutic response upon addition of UPHS
- Effectiveness against intracranial 9L tumors [2]: least effective treatments for intracranial 9L tumors
- Subcutaneous 9L Tumor Growth Delay, Mean Days [3]: 9.1 ± 0.7 days
- Increase in tumor growth delay by prior administration of UPHS [3]: 1.5 fold
- Effectiveness against subcutaneous 9L tumors [3]: very effective treatments for subcutaneously growing 9L tumors

Compound: N[C@@H](Cc1ccc(N(CCCl)CCCl)cc1)C(=O)O [PAM, Melphalan]
- Lewis lung carcinoma growth delay, Mean Days [1, 4]: 6.8 ± 0.4 days
- Lewis lung carcinoma growth delay, Mean Days [1, 5]: 2.7 ± 0.3 days
- Increase of growth delay by addition of UPHS [1]: more than two-fold
